Results reported in EP2257297B1, “COMPOUNDS FOR USE IN THE TREATMENT OF ACNE, SEBORRHOEA AND SEBHORROEIC DERMATITIS, OR FOR REDUCING SEBUM SECRETION” (priority 2008, dated 2009).

target: T1, human MC5R (Homo sapiens, UniProt P33032); experiment: Human MC5R radioligand binding assay ([125I] NDP-MSH displacement, hMC5R membranes); settings: not given
T1 construct: purchased Perkin Elmer RBXMC5M400UA
How it was run: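 Bound ligand collected by filtration on PEI-soaked GF/A filters and counted. Data fitted to a single-site competition model with fixed Hill coefficient to give EC50.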

T1 sequence (P33032 whole entry): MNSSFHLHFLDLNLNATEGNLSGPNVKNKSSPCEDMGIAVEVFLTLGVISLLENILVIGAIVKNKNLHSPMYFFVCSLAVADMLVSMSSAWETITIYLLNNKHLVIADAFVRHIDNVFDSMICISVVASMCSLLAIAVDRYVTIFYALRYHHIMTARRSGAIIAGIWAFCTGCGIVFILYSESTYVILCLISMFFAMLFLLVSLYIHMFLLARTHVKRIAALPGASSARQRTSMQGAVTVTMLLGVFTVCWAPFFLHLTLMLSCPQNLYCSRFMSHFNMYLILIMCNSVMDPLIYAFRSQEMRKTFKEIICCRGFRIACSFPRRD

SMILES | IC50 [µM]
CC[C@H](CN1CC[C@@H](CNC(=O)c2ccc(Cl)c(Cl)c2)N[C@@H](CCN)C1=O)C(C)C (racemic) [Compound 490, N-(((3S,5S)-3-(2-aminoethyl)-1-((S)-2-ethyl-3-methylbutyl)-2-oxo-1,4-diazepan-5-yl)methyl)-3,4-dichlorobenzamide] | < 10

same assay, conditions: hMC5R assay as in Example 102; compounds tested as trifluoroacetate or hydrochloride salts, or as free base

SMILES | IC50 [µM]
N=C(N)NCCC[C@@H]1N[C@H](CNC(=O)[C@H]2COc3ccccc3O2)CCN(CC(c2ccccc2)c2ccccc2)C1=O [Compound 168, (R)-N-(((3S,5S)-1-(2,2-diphenylethyl)-3-(3-guanidinopropyl)-2-oxo-1,4-diazepan-5-yl)methyl)-2,3-dihydrobenzo[b][1,4]dioxine-2-carboxamide] | < 1
CCC(CC)CN1CC[C@@H](CNC(=O)c2ccc(Cl)c(C)c2)N[C@@H](CCN)C1=O [Compound 352, N-(((3S,5S)-3-(2-aminoethyl)-1-(2-ethylbutyl)-2-oxo-1,4-diazepan-5-yl)methyl)-4-chloro-3-methylbenzamide] | < 10
O=C(/C=C/c1ccc(Cl)cc1)NC[C@@H]1CCN(Cc2cc(Cl)cc(Cl)c2)C(=O)[C@H](CN2CCCCC2)N1 [Compound 368, (E)-3-(4-chlorophenyl)-N-(((3S,5S)-1-(3,5-dichlorobenzyl)-2-oxo-3-(piperidin-1-ylmethyl)-1,4-diazepan-5-yl)methyl)acrylamide] | < 0.1
N=C(N)NCCC[C@@H]1N[C@H](CNC(=O)c2ccc3c(c2)OCO3)CCN(CC(c2ccccc2)c2ccccc2)C1=O [Compound 148, N-(((3S,5S)-1-(2,2-diphenylethyl)-3-(3-guanidinopropyl)-2-oxo-1,4-diazepan-5-yl)methyl)benzo[d][1,3]dioxole-5-carboxamide] | < 1
N=C(N)NCCC[C@@H]1N[C@H](CNS(=O)(=O)c2ccc3ccccc3c2)CCN(CC(c2ccccc2)c2ccccc2)C1=O [Compound 50, N-(((3S,5S)-1-(2,2-diphenylethyl)-3-(3-guanidinopropyl)-2-oxo-1,4-diazepan-5-yl)methyl)-2-naphthalene-2-sulfonamide] | < 10
N=C(N)NCCC[C@@H]1N[C@H](CNC(=O)c2ccc(Cl)c(Cl)c2)CCN(CC(c2ccccc2)c2ccccc2)C1=O [Compound 152, 3,4-dichloro-N-(((3S,5S)-1-(2,2-diphenylethyl)-3-(3-guanidinopropyl)-2-oxo-1,4-diazepan-5-yl)methyl)benzamide] | < 0.1
NCC[C@@H]1N[C@H](CNC(=O)c2ccc3cc(F)ccc3c2)CCN(CC(c2ccccc2)c2ccccc2)C1=O [Compound 31, N-(((3S,5S)-3-(2-aminoethyl)-1-(2,2-diphenylethyl)-2-oxo-1,4-diazepan-5-yl)methyl)-6-fluoro-2-naphthamide] | < 1
Cc1ccc(C(=O)NC[C@@H]2CCN(CC(c3ccccc3)c3ccccc3)C(=O)[C@H](CCCN)N2)cc1C [Compound 223, N-(((3S,5S)-3-(3-aminopropyl)-1-(2,2-diphenylethyl)-2-oxo-1,4-diazepan-5-yl)methyl)-3,4-dimethylbenzamide] | < 1
N=C(N)NCCC[C@@H]1N[C@H](CNC(=O)c2ccc3ccccc3c2)CCN(CCc2ccccc2)C1=O [Compound 182, N-(((3S,5S)-3-(3-guanidinopropyl)-2-oxo-1-phenethyl-1,4-diazepan-5-yl)methyl)-2-naphthamide] | < 1
Cc1ccc(/C=C/C(=O)NC[C@@H]2CCN(CC(c3ccccc3)c3ccccc3)C(=O)[C@H](CCCN)N2)cc1 [Compound 219, (E)-N-(((3S,5S)-3-(3-aminopropyl)-1-(2,2-diphenylethyl)-2-oxo-1,4-diazepan-5-yl)methyl)-3-p-tolylacrylamide] | < 0.1
NCCC[C@@H]1N[C@H](CNC(=O)c2ccc3cc(F)ccc3c2)CCN(CC(c2ccccc2)c2ccccc2)C1=O [Compound 221, N-(((3S,5S)-3-(3-aminopropyl)-1-(2,2-diphenylethyl)-2-oxo-1,4-diazepan-5-yl)methyl)-6-fluoro-2-naphthamide] | < 0.1
N=C(N)NCCC[C@@H]1N[C@H](CNC(=O)c2cc(Cl)cc(Cl)c2)CCN(CC(c2ccccc2)c2ccccc2)C1=O [Compound 154, 3,5-dichloro-N-(((3S,5S)-1-(2,2-diphenylethyl)-3-(3-guanidinopropyl)-2-oxo-1,4-diazepan-5-yl)methyl)benzamide] | < 1
O=C(NC[C@@H]1CCN(Cc2cc(Cl)cc(Cl)c2)C(=O)[C@H](CCN2CCCCC2)N1)c1ccc(Cl)c(Cl)c1 [Compound 343, 3,4-dichloro-N-(((3S,5S)-1-(3,5-dichlorobenzyl)-2-oxo-3-(2-(piperidin-1-yl)ethyl)-1,4-diazepan-5-yl)methyl)benzamide] | < 0.1
N=C(N)NCCC[C@@H]1N[C@H](CNC(=O)CCc2ccccc2)CCN(CC(c2ccccc2)c2ccccc2)C1=O [Compound 143, N-(((3S,5S)-1-(2,2-diphenylethyl)-3-(3-guanidinopropyl)-2-oxo-1,4-diazepan-5-yl)methyl)-3-phenylpropanamide] | < 1
COc1ccc2cc(C(=O)NC[C@@H]3CCN(CC(c4ccccc4)c4ccccc4)C(=O)[C@H](CCCNC(=N)N)N3)ccc2c1 [Compound 158, N-(((3S,5S)-1-(2,2-diphenylethyl)-3-(3-guanidinopropyl)-2-oxo-1,4-diazepan-5-yl)methyl)-6-methoxy-2-naphthamide] | < 0.1
CC(C)NCC[C@@H]1N[C@H](CCNC(=O)c2ccc(Cl)c(Cl)c2)CCN(CC(c2ccccc2)c2ccccc2)C1=O [Compound 362, 3,4-dichloro-N-(2-((3S,5R)-1-(2,2-diphenylethyl)-3-(2-(isopropylamino)ethyl)-2-oxo-1,4-diazepan-5-yl)ethyl)benzamide] | < 1
CCC(CC)CN1CC[C@@H](CNC(=O)c2ccc(F)c(Cl)c2)N[C@@H](CCN)C1=O [Compound 353, N-(((3S,5S)-3-(2-aminoethyl)-1-(2-ethylbutyl)-2-oxo-1,4-diazepan-5-yl)methyl)-3-chloro-4-fluorobenzamide] | < 10
N=C(N)NCCC[C@@H]1N[C@H](CNC(=O)CC2CCCCC2)CCN(CC(c2ccccc2)c2ccccc2)C1=O [Compound 147, 2-cyclohexyl-N-(((3S,5S)-1-(2,2-diphenylethyl)-3-(3-guanidinopropyl)-2-oxo-1,4-diazepan-5-yl)methyl)acetamide] | < 1
NCC[C@@H]1N[C@H](CCNC(=O)c2ccc(Cl)c(Cl)c2)CCN(CC(c2ccccc2)c2ccccc2)C1=O [Compound 309, 3,4-dichloro-N-(2-((3S,5R)-1-(2,2-diphenylethyl)-2-oxo-3-(2-aminoethyl)-1,4-diazepan-5-yl)ethyl)benzamide] | < 1
N=C(N)NCCC[C@@H]1N[C@H](CNC(=O)COc2ccccc2)CCN(CC(c2ccccc2)c2ccccc2)C1=O [Compound 162, N-(((3S,5S)-1-(2,2-diphenylethyl)-3-(3-guanidinopropyl)-2-oxo-1,4-diazepan-5-yl)methyl)-2-phenoxyacetamide] | < 10
CCC(CC)CN1CC[C@@H](CNC(=O)c2ccc3ccccc3c2)N[C@@H](CCN)C1=O [Compound 54, N-(((3S,5S)-3-(2-aminoethyl)-1-(2-ethylbutyl)-2-oxo-1,4-diazepan-5-yl)methyl)-2-naphthamide] | < 1
N#Cc1ccc(/C=C/C(=O)NC[C@@H]2CCN(CC(c3ccccc3)c3ccccc3)C(=O)[C@H](CCCN)N2)cc1 [Compound 234, (E)-N-(((3S,5S)-3-(3-aminopropyl)-1-(2,2-diphenylethyl)-2-oxo-1,4-diazepan-5-yl)methyl)-3-(4-cyanophenyl)acrylamide] | < 1
CCC(CN1CC[C@@H](CNC(=O)c2ccc3ccccc3c2)N[C@@H](CCN)C1=O)c1ccccc1 (mixture of isomers) [Compound 37, (3S,5S)-3-(2-aminoethyl)-5-(N-2-naphthamidomethyl)-1-(2-phenylbutyl)-1,4-diazepan-2-one] | < 0.1
N=C(N)NCCC[C@@H]1N[C@H](CNC(=O)c2cnc3ccccc3c2)CCN(CC(c2ccccc2)c2ccccc2)C1=O [Compound 112, N-(((3S,5S)-1-(2,2-diphenylethyl)-3-(3-guanidinopropyl)-2-oxo-1,4-diazepan-5-yl)methyl)quinoline-3-carboxamide] | < 0.1
NCCCC[C@@H]1N[C@H](CNC(=O)Cc2cccc3ccccc23)CCN(Cc2ccc3ccccc3c2)C1=O [Compound 125, N-(((3S,5S)-3-(4-aminobutyl)-1-(naphthalen-2-ylmethyl)-2-oxo-1,4-diazepan-5-yl)methyl)-2-(naphthalen-1-yl)acetamide] | < 10
NCCC[C@@H]1N[C@H](CNC(=O)c2ccc(-n3cccc3)cc2)CCN(CC(c2ccccc2)c2ccccc2)C1=O [Compound 238, N-(((3S,5S)-3-(3-aminopropyl)-1-(2,2-diphenylethyl)-2-oxo-1,4-diazepan-5-yl)methyl)-4-(1H-pyrrol-1-yl)benzamide] | < 0.1
Cc1ccc(C(=O)NC[C@@H]2CCN(CC(c3ccccc3)c3ccccc3)C(=O)[C@H](CCN)N2)cc1C [Compound 281, N-(((3S,5S)-3-(2-aminoethyl)-1-(2,2-diphenylethyl)-2-oxo-1,4-diazepan-5-yl)methyl)-3,4-dimethylbenzamide] | < 1
Cc1ccc(/C=C/C(=O)NC[C@@H]2CCN(CC(c3ccccc3)c3ccccc3)C(=O)[C@H](CCCN)N2)s1 [Compound 255, (E)-N-(((3S,5S)-3-(3-aminopropyl)-1-(2,2-diphenylethyl)-2-oxo-1,4-diazepan-5-yl)methyl)-3-(5-methylthiophen-2-yl)acrylamide] | < 1

same assay, conditions: hMC5R binding assay as in Example 102; compounds tested as trifluoroacetate or hydrochloride salts, or as free base

SMILES | IC50 [µM]
CC[C@@H](CN1CC[C@H](CNC(=O)c2ccc3cc(Cl)ccc3c2)N[C@H](CCN2CCCCC2)C1=O)c1ccccc1 [Compound 580, 6-chloro-N-(((3R,5R)-2-oxo-1-((R)-2-phenylbutyl)-3-(2-(piperidin-1-yl)ethyl)-1,4-diazepan-5-yl)methyl)-2-naphthamide] | < 1
